The supplement of paper PMC11451515

Columns and labels:
Conditions in all cases: 48 h
SEM cells [1] = experiment: AUC of viability dose-response curve (% viability x log10 dose units); higher = less sensitive
Procedure, shortened: (§1)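 In 1536-well plates, leukemia cells adapted to each medium (500 or 1000 cells/well) were exposed for 48 h at 37°C to library compounds in DMSO across 11 threefold doses, 47 μM down to 0.79 nM. Viability was read by CellTiter-Glo One luminescence and normalised per plate to DMSO and cell-free wells. A four-parameter log-logistic fit over log10 doses was integrated by trapezoidal rule. This yielded the area under the curve, with over-full-viability curves scaled and quality-control failures dropped.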

NOMO1 [2] = experiment: as above
Procedure, shortened: as §1

P12-Ichikawa [3] = experiment: as above
Procedure, shortened: as §1

SEM cells [4] = experiment: cell viability relative to DMSO control; higher = less cytotoxic
Procedure, shortened: (§2)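 Viability was expressed as a per-plate percentage of DMSO wells, with cell-free wells as background. Leukemia cells (NOMO1 or SEM at 500 cells/well, P12-Ichikawa at 1000 cells/well) were adapted for at least four passages in each medium and seeded in 1536-well plates (5 μl). Library compounds in DMSO were pin-dosed over an 11-point threefold series from 47 μM to 0.79 nM, and CellTiter-Glo One luminescence was read after 48 h at 37°C.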

NOMO1 [5] = experiment: as above
Procedure, shortened: as §2

P12-Ichikawa [6] = experiment: as above
Procedure, shortened: as §2

CC(=O)OCC(=O)[C@@]1(O)CC[C@H]2[C@@H]3CCC/4=C/C(=O)CC[C@]4(C)[C@H]3C(=O)C[C@]12C
AUC of viability dose-response curve
Conditions | NOMO1 [2] | P12-Ichikawa [3] | SEM cells [1]
HPLM + 10% dialyzed FBS | 464 | 460 | 466
RPMI 5 mM glucose + 10% FBS | 476 | 470 | 466
RPMI 5 mM glucose + 10% dialyzed FBS | 459 | 430 | 445

SEM cells [4], HPLM + 10% dialyzed FBS
Conditions | cell viability [%]
0.000781 µM | 106
0.00234 µM | 109
0.00702 µM | 112
0.0211 µM | 101
0.0632 µM | 107
0.19 µM | 117
0.569 µM | 84.5
1.71 µM | 51.8
5.12 µM | 112
15.4 µM | 111
46.1 µM | 118

Cc1c(CN2CCN([S+](C)(=O)[O-])CC2)sc2c(N3CCOCC3)nc(-c3cnc(N)nc3)nc12
AUC of viability dose-response curve
Conditions | NOMO1 [2] | P12-Ichikawa [3] | SEM cells [1]
HPLM + 10% dialyzed FBS | 305 | 371 | 287
RPMI 5 mM glucose + 10% FBS | 350 | 336 | 304
RPMI 5 mM glucose + 10% dialyzed FBS | 316 | 332 | 328

SEM cells [4], RPMI 5 mM glucose + 10% dialyzed FBS
Conditions | cell viability [%]
0.000781 µM | 118
0.00234 µM | 134
0.00702 µM | 122
0.0211 µM | 105
0.0632 µM | 87.3
0.19 µM | 86.6
0.569 µM | 98.8
1.71 µM | 57.9
5.12 µM | 50.8
15.4 µM | 50.6
46.1 µM | 44

C[S+](=O)([O-])c1ccc([C@@H](O)[C@@H](CO)NC(=O)C(Cl)Cl)cc1
AUC of viability dose-response curve
Conditions | NOMO1 [2] | P12-Ichikawa [3] | SEM cells [1]
HPLM + 10% dialyzed FBS | 445 | 456 | 432
RPMI 5 mM glucose + 10% FBS | 476 | 431 | 421
RPMI 5 mM glucose + 10% dialyzed FBS | 455 | 420 | 450

C/C1=C2/[N]3[Co+]456([OH])<-[N]7=C1[C@@H](CCC(N)=O)C(C)(C)/C7=C/C1=[N]->4C(=C(/C)C4=[N]->5[C@@](C)([C@H]3[C@H](CC(N)=O)[C@@]2(C)CCC(=O)NC[C@@H](C)OP(=O)([O-])O[C@H]2[C@@H](O)[C@@H](n3c[n]->6c5cc(C)c(C)cc53)O[C@@H]2CO)[C@@](C)(CC(N)=O)[C@@H]4CCC(N)=O)/[C@@](C)(CC(N)=O)[C@@H]1CCC(N)=O
AUC of viability dose-response curve
Conditions | HPLM + 10% dialyzed FBS | RPMI 5 mM glucose + 10% FBS | RPMI 5 mM glucose + 10% dialyzed FBS
NOMO1 [2] | 434 | 426 | 443
SEM cells [1] | 433 | 414 | 460

cell viability [%]
Conditions | NOMO1 [5] | P12-Ichikawa [6] | SEM cells [4]
HPLM + 10% dialyzed FBS, 0.000781 µM | 94.9 | 103 | 93.9
HPLM + 10% dialyzed FBS, 0.00234 µM | 110 | 97.2 | 90.7
HPLM + 10% dialyzed FBS, 0.00702 µM | 102 | 95.9 | 94.6
HPLM + 10% dialyzed FBS, 0.0211 µM | 103 | 99.2 | 98.2
HPLM + 10% dialyzed FBS, 0.0632 µM | 113 | 99.9 | 98.3
HPLM + 10% dialyzed FBS, 0.19 µM | 105 | 97.8 | 94.2
HPLM + 10% dialyzed FBS, 0.569 µM | 100 | 92.8 | 94.6
HPLM + 10% dialyzed FBS, 1.71 µM | 77.2 | 93.2 | 92.8
HPLM + 10% dialyzed FBS, 5.12 µM | 87.9 | 76.8 | 94.5
HPLM + 10% dialyzed FBS, 15.4 µM | 80.4 | 77.7 | 73.8
HPLM + 10% dialyzed FBS, 46.1 µM | 70.6 | 71.3 | 60.1
RPMI 5 mM glucose + 10% FBS, 0.000781 µM | 95.1 | 97.5 | 112
RPMI 5 mM glucose + 10% FBS, 0.00234 µM | 95 | 88.7 | 116
RPMI 5 mM glucose + 10% FBS, 0.00702 µM | 87.9 | 97.9 | 104
RPMI 5 mM glucose + 10% FBS, 0.0211 µM | 95.4 | 98.1 | 82.5
RPMI 5 mM glucose + 10% FBS, 0.0632 µM | 90.5 | 95.7 | 113
RPMI 5 mM glucose + 10% FBS, 0.19 µM | 90.3 | 88.3 | 95.9
RPMI 5 mM glucose + 10% FBS, 0.569 µM | 97.3 | 98.8 | 99.3
RPMI 5 mM glucose + 10% FBS, 1.71 µM | 82.2 | 93.4 | 97.3
RPMI 5 mM glucose + 10% FBS, 5.12 µM | 81.4 | 85.8 | 77.1
RPMI 5 mM glucose + 10% FBS, 15.4 µM | 89 | 85.4 | 91.6
RPMI 5 mM glucose + 10% FBS, 46.1 µM | 75.5 | 69.8 | 79.9
RPMI 5 mM glucose + 10% dialyzed FBS, 0.000781 µM | 95.6 | 82.3 | 96.4
RPMI 5 mM glucose + 10% dialyzed FBS, 0.00234 µM | 95.8 | 85.2 | 96.6
RPMI 5 mM glucose + 10% dialyzed FBS, 0.00702 µM | 101 | 86.5 | 109
RPMI 5 mM glucose + 10% dialyzed FBS, 0.0211 µM | 94.6 | 77.3 | 100
RPMI 5 mM glucose + 10% dialyzed FBS, 0.0632 µM | 90.7 | 83 | 110
RPMI 5 mM glucose + 10% dialyzed FBS, 0.19 µM | 97.7 | 79.9 | 95.6
RPMI 5 mM glucose + 10% dialyzed FBS, 0.569 µM | 97.5 | 75.7 | 101
RPMI 5 mM glucose + 10% dialyzed FBS, 1.71 µM | 91.8 | 76.7 | 101
RPMI 5 mM glucose + 10% dialyzed FBS, 5.12 µM | 86.1 | 73.9 | 103
RPMI 5 mM glucose + 10% dialyzed FBS, 15.4 µM | 89.9 | 76.9 | 80.4
RPMI 5 mM glucose + 10% dialyzed FBS, 46.1 µM | 72.7 | 61 | 71

N#C/C(=C(/N)Sc1ccc(N)cc1)c1ccccc1C(F)(F)F
AUC of viability dose-response curve
Conditions | NOMO1 [2] | P12-Ichikawa [3] | SEM cells [1]
HPLM + 10% dialyzed FBS | 354 | 433 | 428
RPMI 5 mM glucose + 10% FBS | 386 | 417 | 424
RPMI 5 mM glucose + 10% dialyzed FBS | 366 | 436 | 404

cell viability [%], HPLM + 10% dialyzed FBS
Conditions | P12-Ichikawa [6] | SEM cells [4]
0.000781 µM | 123 | 91.1
0.00234 µM | 121 | 141
0.00702 µM | 125 | 124
0.0211 µM | 125 | 129
0.0632 µM | 133 | 129
0.19 µM | 118 | 124
0.569 µM | 120 | 126
1.71 µM | 103 | 110
5.12 µM | 94.4 | 85.4
15.4 µM | 94.1 | 82.3
46.1 µM | 83.9 | 64.6

CC1(COc2ccc3c(c2)ncn3-c2ccc3cccc(N4CCC(N)CC4)c3n2)COC1
AUC of viability dose-response curve
Conditions | HPLM + 10% dialyzed FBS | RPMI 5 mM glucose + 10% FBS | RPMI 5 mM glucose + 10% dialyzed FBS
P12-Ichikawa [3] | 392 | 403 | 418
SEM cells [1] | 254 | 216 | 240

cell viability [%], SEM cells [4]
Conditions | HPLM + 10% dialyzed FBS | RPMI 5 mM glucose + 10% FBS | RPMI 5 mM glucose + 10% dialyzed FBS
0.000781 µM | 91.2 | 114 | 99.8
0.00234 µM | 96.7 | 101 | 99.7
0.00702 µM | 81.3 | 94 | 73.6
0.0211 µM | 62.7 | 64.9 | 59.6
0.0632 µM | 38.9 | 28.8 | 33.8
0.19 µM | 56.3 | 49.8 | 51.1
0.569 µM | 54.4 | 49.5 | 47.4
1.71 µM | 44.1 | 40.5 | 48.2
5.12 µM | 26.4 | 18.1 | 20
15.4 µM | 28.7 | 16.4 | 20.2
46.1 µM | 6.33 | 5.26 | 6.44
